The test system of data set [1] is LoVo. Kind of data set: Cytotoxicity against human LoVo cells after 72 hrs by sulforhodamine B assay. Format: functional, cell-based.
For data set [2], the system named is Mus musculus. Kind of data set: Hepatotoxicity in BALB/c mdb mouse implanted with mouse 4T1 cells assessed as liver weight at 100 umol/kg, ip administered five times weekly measured at 29 day post cell innoculum (reference value: 1.2 +/- 0.13 g). The note with it: in vivo, 696 h. Format: toxicity, organism-based.
Data set [3] in a line: Induction of apoptosis in human LoVo/DX cells assessed as late apoptotic cells at 15 uM after 24 hrs by APC-Annexin-V/propidium iodide staining based flow cytometric method relative to control. The class given is functional. A general note: In flow cytometry, cells or beads pass a laser one at a time.
Data set [4] deals with Mus musculus. Briefly: Toxicity in BALB/c mdb mouse implanted with mouse 4T1 cells assessed as lung weight at 100 umol/kg, ip administered five times weekly measured at 29 day post cell innoculum (reference value: 0.2 +/- 0.018 g). The class given is organism-based. The note with it: in vivo, 696 h.
Data set [5] relates to Mus musculus. Kind of data set: Toxicity in BALB/c mdb mouse implanted with mouse 4T1 cells assessed as serum ALT level at 100 umol/kg, ip administered five times weekly measured at 29 day post cell innoculum (reference value: 23.8 +/- 2.2 U/L). The class given is organism-based. To be noted: in vivo, 696 h.
In data set [6] the test system is Mus musculus. Briefly: Toxicity in BALB/c mdb mouse implanted with mouse 4T1 cells assessed as serum urea level at 100 umol/kg, ip administered five times weekly measured at 29 day post cell innoculum (reference value: 3.8 +/- […]). To be noted: in vivo, 696 h. Format: organism-based.
For data set [7], the system named is Mus musculus. Briefly: Nephrotoxicity in BALB/c mdb mouse implanted with mouse 4T1 cells assessed as kidney weight at 100 umol/kg, ip administered five times weekly measured at 29 day post cell innoculum (reference value: 0.136 +/- 0.006 g). The class given is toxicity, organism-based. The note with it: in vivo, 696 h.
Data set [8] concerns Mus musculus. Briefly: Toxicity in BALB/c mdb mouse implanted with mouse 4T1 cells assessed as RBC level at 100 umol/kg, ip administered five times weekly measured at 29 day post cell innoculum (reference value: 8.6 +/- 0.9 10^6/uL). To be noted: in vivo, 696 h. The class given is organism-based.
The test system of data set [9] is LoVo. Briefly: Potency index, ratio of benzyl isothiocyanate IC50 to compound IC50 for human LoVo cells. The class given is functional.

SMILES strings stand for the structures.

In the data set on LoVo [1], `O=P(CCCCCCN=C=S)(Oc1ccccc1)Oc1ccccc1` returned an IC50 of 2900 nM. In addition, the Activity in the data set with Mus musculus [2] was determined as 1.32 g; in data set [3], 59.7%; with Mus musculus [4], 0.294 g; with Mus musculus [5], 33.3 U/L; in the data set on Mus musculus [6], 4.9 mmol/L; in the data set with Mus musculus [7], 0.143 g. Further, the Activity with Mus musculus [8] is 11.6 ×10⁶ /uL. The “Ratio IC50” value in the data set with LoVo [9] came to 5.

Broadly, the IC50 is the concentration at which inhibition is half-maximal.
